According to PubChem BioAssay (NCI):
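Abbreviation: GI50, concentration required for 50% inhibition of growth. At the TGI there is no net growth.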

What was measured:
Assay in all cases: growth of human tumour cells (NCI), 384-well format
SN12C renal = test system: SN12C renal
OVCAR-3 ovarian = test system: OVCAR-3 ovarian
SF-268 CNS = test system: SF-268 CNS
BT-549 breast = test system: BT-549 breast
K-562 leukemia = test system: K-562 leukemia
UO-31 renal = test system: UO-31 renal
M14 melanoma = test system: M14 melanoma
SK-MEL-28 melanoma = test system: SK-MEL-28 melanoma
NCI-H522 lung = test system: NCI-H522 lung
SNB-19 CNS = test system: SNB-19 CNS
CCRF-CEM leukemia = test system: CCRF-CEM leukemia
HCT-15 colon = test system: HCT-15 colon
UACC-62 melanoma = test system: UACC-62 melanoma
HOP-62 NSCLC = test system: HOP-62 NSCLC
U251 glioblastoma = test system: U251 glioblastoma
ACHN renal = test system: ACHN renal
LOX IMVI melanoma = test system: LOX IMVI melanoma
NCI-H322M lung = test system: NCI-H322M lung
UACC-257 melanoma = test system: UACC-257 melanoma
COLO 205 colon = test system: COLO 205 colon
NCI-H226 lung = test system: NCI-H226 lung
HOP-92 NSCLC = test system: HOP-92 NSCLC
IGROV1 ovarian = test system: IGROV1 ovarian
CAKI-1 renal = test system: CAKI-1 renal
SK-MEL-2 melanoma = test system: SK-MEL-2 melanoma
HCC-2998 colon = test system: HCC-2998 colon
NCI-H23 lung = test system: NCI-H23 lung
EKVX NSCLC = test system: EKVX NSCLC
SW-620 colon = test system: SW-620 colon
NCI/ADR-RES ovarian = test system: NCI/ADR-RES ovarian
MDA-MB-231 breast = test system: MDA-MB-231 breast
SNB-75 CNS = test system: SNB-75 CNS
OVCAR-5 ovarian = test system: OVCAR-5 ovarian
HL-60(TB) leukemia = test system: HL-60(TB) leukemia
HT29 colon = test system: HT29 colon
PC-3 prostate = test system: PC-3 prostate
SR leukemia = test system: SR leukemia
786-0 renal = test system: 786-0 renal
T-47D breast = test system: T-47D breast
RXF 393 renal = test system: RXF 393 renal
MOLT-4 leukemia = test system: MOLT-4 leukemia
SF-295 CNS = test system: SF-295 CNS
HS 578T breast = test system: HS 578T breast
RPMI-8226 leukemia = test system: RPMI-8226 leukemia
OVCAR-4 ovarian = test system: OVCAR-4 ovarian
A549 NSCLC = test system: A549 NSCLC
SF-539 CNS = test system: SF-539 CNS
SK-OV-3 ovarian = test system: SK-OV-3 ovarian
NCI-H460 NSCLC = test system: NCI-H460 NSCLC
A498 renal = test system: A498 renal
MDA-MB-435 melanoma = test system: MDA-MB-435 melanoma
MALME-3M melanoma = test system: MALME-3M melanoma
OVCAR-8 ovarian = test system: OVCAR-8 ovarian
TK-10 renal = test system: TK-10 renal
KM12 colon = test system: KM12 colon
MCF7 breast = test system: MCF7 breast
HCT-116 colon = test system: HCT-116 colon
DU-145 prostate = test system: DU-145 prostate
MDA-MB-468 breast = test system: MDA-MB-468 breast

CO[C@H]1C[C@@H]2CC[C@@H](C)[C@@](O)(O2)C(=O)C(=O)N2CCCC[C@H]2C(=O)O[C@H]([C@H](C)C[C@@H]2CC[C@@H](O)[C@H](OC)C2)CC(=O)[C@H](C)C=C(C)[C@@H](O)[C@@H](OC)C(=O)[C@H](C)C[C@H](C)/C=C/C=C/C=C1C
GI50 (SN12C renal): 7.42 µM | TGI (SN12C renal): 24.5 µM | GI50 (OVCAR-3 ovarian): 10.9 µM | TGI (OVCAR-3 ovarian): 24.2 µM | GI50 (SF-268 CNS): 10.2 µM | TGI (SF-268 CNS): 23.8 µM | GI50 (BT-549 breast): 3.98 µM | TGI (BT-549 breast): 18.7 µM | GI50 (K-562 leukemia): 4.35 µM | TGI (K-562 leukemia): 18.4 µM | GI50 (UO-31 renal): 11 µM | TGI (UO-31 renal): 23.2 µM | GI50 (M14 melanoma): 11 µM | TGI (M14 melanoma): 23.7 µM | GI50 (SK-MEL-28 melanoma): 12.7 µM | TGI (SK-MEL-28 melanoma): 25.5 µM | GI50 (NCI-H522 lung): 6.69 µM | TGI (NCI-H522 lung): 21.4 µM | GI50 (SNB-19 CNS): 6.46 µM | TGI (SNB-19 CNS): 23.2 µM | TGI (CCRF-CEM leukemia): 7.12 µM | GI50 (HCT-15 colon): 3.92 µM | TGI (HCT-15 colon): 19.7 µM | GI50 (UACC-62 melanoma): 4.54 µM | TGI (UACC-62 melanoma): 19.7 µM | TGI (HOP-62 NSCLC): 20.2 µM | GI50 (U251 glioblastoma): 3.94 µM | TGI (U251 glioblastoma): 20.3 µM | GI50 (ACHN renal): 1.61 µM | TGI (ACHN renal): 23.4 µM | GI50 (LOX IMVI melanoma): 13.1 µM | TGI (LOX IMVI melanoma): 25.8 µM | GI50 (NCI-H322M lung): 12.7 µM | TGI (NCI-H322M lung): 25.8 µM | GI50 (UACC-257 melanoma): 16 µM | TGI (UACC-257 melanoma): 29.6 µM | GI50 (COLO 205 colon): 11.3 µM | TGI (COLO 205 colon): 23.4 µM | GI50 (NCI-H226 lung): 10.3 µM | TGI (NCI-H226 lung): 23.5 µM | GI50 (HOP-92 NSCLC): 11 µM | TGI (HOP-92 NSCLC): 25 µM | TGI (IGROV1 ovarian): 15.3 µM | TGI (CAKI-1 renal): 21.5 µM | GI50 (SK-MEL-2 melanoma): 11.2 µM | TGI (SK-MEL-2 melanoma): 27.9 µM | GI50 (HCC-2998 colon): 4.72 µM | TGI (HCC-2998 colon): 18.6 µM | GI50 (NCI-H23 lung): 12 µM | TGI (NCI-H23 lung): 24.8 µM | GI50 (EKVX NSCLC): 12.3 µM | TGI (EKVX NSCLC): 29.1 µM | GI50 (SW-620 colon): 13 µM | TGI (SW-620 colon): 26 µM | GI50 (NCI/ADR-RES ovarian): 14.9 µM | TGI (NCI/ADR-RES ovarian): 34.2 µM | GI50 (MDA-MB-231 breast): 12 µM | TGI (MDA-MB-231 breast): 24.5 µM | GI50 (SNB-75 CNS): 13 µM | TGI (SNB-75 CNS): 25.8 µM | GI50 (OVCAR-5 ovarian): 12.9 µM | TGI (OVCAR-5 ovarian): 27.4 µM | GI50 (HL-60(TB) leukemia): 3.98 µM | TGI (HL-60(TB) leukemia): 7.97 µM | GI50 (HT29 colon): 6.66 µM | TGI (HT29 colon): 21.8 µM | TGI (PC-3 prostate): 17.9 µM | TGI (SR leukemia): 1.89 µM | GI50 ([…]-0 renal): 5.99 µM | TGI (786-0 renal): 26.9 µM | GI50 (T-47D breast): 1.33 µM | TGI (T-47D breast): 36.6 µM | GI50 (RXF 393 renal): 12.5 µM | TGI (RXF 393 renal): 25.2 µM | TGI (MOLT-4 leukemia): 4.88 µM | TGI (SF-295 CNS): 20 µM | TGI (HS 578T breast): 9.94 µM | TGI (RPMI-8226 leukemia): 4.45 µM | GI50 (OVCAR-4 ovarian): 9.82 µM | TGI (OVCAR-4 ovarian): 25.5 µM | TGI (A549 NSCLC): > 45.4 µM | GI50 (SF-539 CNS): 2.53 µM | TGI (SF-539 CNS): 19.6 µM | GI50 (SK-OV-3 ovarian): 10.7 µM | TGI (SK-OV-3 ovarian): 22.9 µM | TGI (NCI-H460 NSCLC): 16.8 µM | TGI (A498 renal): 17.4 µM | GI50 (MDA-MB-435 melanoma): 11.6 µM | TGI (MDA-MB-435 melanoma): 24.2 µM | TGI (MALME-3M melanoma): 20.6 µM | GI50 (OVCAR-8 ovarian): 7.29 µM | TGI (OVCAR-8 ovarian): 22.6 µM | GI50 (TK-10 renal): 0.518 µM | TGI (TK-10 renal): 27.5 µM | GI50 (KM12 colon): 10.2 µM | TGI (KM12 colon): 23.1 µM | TGI (MCF7 breast): 15.4 µM | GI50 (HCT-116 colon): 8.71 µM | TGI (HCT-116 colon): 24.2 µM | GI50 (DU-145 prostate): 4.69 µM | TGI (DU-145 prostate): 36.2 µM | TGI (MDA-MB-468 breast): 8.1 µM
